For one data set, the system named is pooled human hepatocytes. The settings on record: AMB-FUBINACA incubated with pooled human hepatocytes; cited from earlier work.
Data set [1] in a line: Quantification of parent compounds and O-demethyl metabolites in rat brain, liver, kidney, serum and urine by UHPLC-HRMS after intraperitoneal injection. Format: in vivo, male Sprague-Dawley rats. Particulars: 1 mg/kg i.p.; for concentration at 30 min: 30 min after injection. As to the method: 8 male Sprague-Dawley rats (8 weeks old, weighing between 385 and 425 g) were used as animal models (Janvier Labs, Le Genest-Saint-Isle, France). Animals were housed individually in polypropylene plastic cages under controlled temperature (24 ± 2 °C) and lighting conditions (12 h:12 h; lights ON at 8 AM), with ad libitum access to food and water. Before SCRA injection, animals were handled and habituated to the experimental room for 1 week. All the experiments were approved by the Committee of Ethics and Animal Experimentation of Universitat Jaume I (2019/VSC/PEA/048) and treated throughout according to the European Union Council Directive of June 3rd, 2010 (6106/1/10 REV1).
SCRAs were dosed intraperitoneally at 1 mg/kg. This dose was selected based on similar studies reported in literature. The solution used for injection was prepared at 1 mg/mL in physiological saline solution containing 5% ethanol. Between 385 and 425 µL of that solution were injected depending on animal weight. Blood (serum), liver, brain, and kidney samples were dissected 15, 30, and 180 min after injection (previously anesthetised with CO2 and decapitated immediately). Blood was collected mainly from carotid arteries and jugular veins and kept at room temperature for 30 min to elicit coagulation. Then, blood was centrifuged 10 min at 2000 rcf at 4 °C in order to separate serum from sedimented clot. Liver, kidney, and brain were rapidly dissected and snap-freezing in liquid nitrogen. One animal was used for each dissection time. Additional serum, liver, brain, and kidney samples were obtained from an animal 48 h after being SCRA-dosed, and used as control. Urine samples were collected at 30, 60, 90, 120, 180, 240, 300, and 360 min, together with an additional sample at 24 h (composite urine sample between 360 min and 24 h, collected from animal dissected at 48 h). Urine samples were obtained from the bottom of the cage at the indicated time. Additionally, urine sample collected from one of the animals prior to injection was used as control. Samples were snap-frozen in liquid nitrogen after collection, and preserved at −23 °C until analysis.
Solid samples (brain, liver, and kidney) were crushed with dry ice using an electric grinder. 0.1 g were accurately weighed (±0.1 mg) in 1.5 mL polypropylene tubes, and 0.3 mL of acetonitrile acidified with 1% of formic acid were added for extraction. After that, samples were sonicated for 5 min, followed by 30 min of vortex agitation. Samples were then frozen for 30 min in order to increase protein removal. Finally, they were centrifuged at 12,500 rfc during 15 min, and the supernatant was 10-fold diluted with ultrapure water for UHPLC-HRMS analysis.
Similarly to solid samples, samples were frozen for 30 min, centrifuged at 12,500 rfc for 15 min, and the supernatant 10-fold diluted with ultrapure water for UHPLC-HRMS analysis.
For parent compounds and O-demethyl metabolites estimated quantification, a calibration line in solvent from 2.5 to 250 ng/mL was included in each batch analysis, as well as different quality control samples (QCs) prepared with blank extracts and spiked at 200 ng/mL for evaluating matrix effect and apply a correction factor.
Samples were analysed using an Acquity ultra-performance liquid chromatography (UPLC) system (Waters Corp, Mildford, MA, USA) coupled to a Xevo G2 QTOF (Waters Corp, Manchester, UK) mass spectrometer with quadrupole time-of-flight (QTOF) hybrid mass analyser.
Chromatographic separation was performed using a Cortecs T3 100 ×2.1 mm, 1.6 µm particle size analytical column (Waters Corp, Wexford, Ireland), maintained at 40 °C. […] Injection volume was 50 µL.

Where [2] appears, read: 15 min after injection, one sample, estimated concentration, 1 mg/kg.
[3] abbreviates: 48 h after injection, one sample, estimated concentration, 1 mg/kg.
Setting [4] is: male, Sprague-Dawley, brain, ip, 1 mg/kg, one sample, estimated concentration, read-out: Brain concentration.
Where [5] appears, read: male, Sprague-Dawley, brain/serum, ip, read-out: Brain/serum ratio, tissue (ng/g)/serum (ng/mL).
Where [6] appears, read: male, Sprague-Dawley, kidney, ip, 1 mg/kg, 15 min after injection, one sample, estimated concentration, read-out: Kidney concentration.
The mark [7] stands for this setting: male, Sprague-Dawley, kidney, ip, 1 mg/kg, one sample, estimated concentration, read-out: Kidney concentration.
[8] abbreviates: male, Sprague-Dawley, kidney, ip, 1 mg/kg, 180 min after injection, one sample, estimated concentration, read-out: Kidney concentration.
[9] abbreviates: male, Sprague-Dawley, kidney/serum, ip, read-out: Kidney/serum ratio, tissue (ng/g)/serum (ng/mL).
Setting [10] is: male, Sprague-Dawley, liver, ip, 1 mg/kg, 15 min after injection, one sample, estimated concentration, read-out: Liver concentration.
The mark [11] stands for this setting: male, Sprague-Dawley, liver, ip, 1 mg/kg, one sample, estimated concentration, read-out: Liver concentration.
Where [12] appears, read: male, Sprague-Dawley, liver, ip, 1 mg/kg, 180 min after injection, one sample, estimated concentration, read-out: Liver concentration.
[13] abbreviates: male, Sprague-Dawley, liver/serum, ip, read-out: Liver/serum ratio, tissue (ng/g)/serum (ng/mL).
The mark [14] stands for this setting: male, Sprague-Dawley, liver/serum, ip, 180 min, read-out: Liver/serum ratio, tissue (ng/g)/serum (ng/mL).
The mark [15] stands for this setting: male, Sprague-Dawley, serum, ip, 1 mg/kg, 15 min after injection, one sample, estimated concentration, read-out: Serum concentration.
[16] abbreviates: male, Sprague-Dawley, serum, ip, 1 mg/kg, one sample, estimated concentration, read-out: Serum concentration.
Setting [17] is: male, Sprague-Dawley, serum, ip, 1 mg/kg, 180 min after injection, one sample, estimated concentration, read-out: Serum concentration.
[18] abbreviates: male, Sprague-Dawley, brain, ip, 1 mg/kg, 15 min after injection, one sample, estimated concentration, read-out: Brain concentration.

Each structure is given as a SMILES string. Entries after “also recorded” stand apart in the source; their conditions may differ. Like-named read-outs stand apart in the source and are kept apart here.

Consider `CC(C)C(NC(=O)c1nn(Cc2ccc(F)cc2)c2ccccc12)C(=O)O` (stereo not drawn) [O-demethyl AMB-FUBINACA], for which the “Incubation time after which the O-demethyl metabolite was the major compound in incubation media” value in the data set with pooled human hepatocytes was 2 to 3 min. Besides, the Liver concentration is recorded as 111 ng/g in data set [1] (setting [2]) and 31.49 ng/g in data set [1] (setting [3]). In addition, the Serum concentration in data set [1] (setting [2]) is recorded as 24.9 ng/mL; in data set [1] (setting [3]), 5.72 ng/mL. Besides, the Urine concentration in data set [1] (24 h (composite urine 360 min to 24 h)) was determined as 7.33 ng/mL. Besides, the concentration at 30 min is 3.83 ng/g in data set [1] (setting [4]), 27.4 ng/g in data set [1] (setting [7]), 356 ng/g in data set [1] (setting [11]) and 76.8 ng/mL in data set [1] (setting [16]). Also, the Kp at 30 min in data set [1] (setting [5]) was found to be 0.05; in data set [1] (setting [9]), 0.36; in data set [1] (setting [13]), 4.63. For the same compound, the concentration at 15 min in data set [1] (setting [6]) is 12.5 ng/g; in data set [1] (setting [10]) it was 110 ng/g; in data set [1] (setting [15]) it was 25 ng/mL. The concentration at 180 min in data set [1] (setting [8]) was 43.7 ng/g; in data set [1] (setting [12]), 265 ng/g; in data set [1] (setting [17]) it was 136 ng/mL; in data set [1] (male, Sprague-Dawley, urine, ip, 1 mg/kg, 180 min, read-out: Urine concentration), 5.78 ng/mL. In addition, the Kp at 15 min in data set [1] (setting [9]) is 0.5; in data set [1] (setting [13]), 4.47. Also, the Kp at 180 min was found to be 0.32 in data set [1] (male, Sprague-Dawley, kidney/serum, ip, 180 min, read-out: Kidney/serum ratio, tissue (ng/g)/serum (ng/mL)) and 1.94 in data set [1] (setting [14]). Also, the concentration at 48 h is 31 ng/g in data set [1] (male, Sprague-Dawley, liver, ip, 1 mg/kg, 48 h after injection, one sample, estimated concentration, read-out: Liver concentration) and 6 ng/mL in data set [1] (male, Sprague-Dawley, serum, ip, 1 mg/kg, 48 h after injection, one sample, estimated concentration, read-out: Serum concentration). Further, the concentration at 300 min in data set [1] (male, Sprague-Dawley, urine, ip, 1 mg/kg, 300 min) was 1.13 ng/mL.

As to `COC(=O)C(NC(=O)c1nn(Cc2ccc(F)cc2)c2ccccc12)C(C)C` (stereo not drawn) [AMB-FUBINACA], in data set [1] (setting [2]), the Brain concentration was 57.2 ng/g. Also, the Liver concentration is 7.25 ng/g in data set [1] (setting [2]) and “no longer detected” in data set [1] (180 min after injection, one sample, estimated concentration). Besides, in data set [1] (at measured time points, versus AMB-CHMICA, 1 mg/kg), the “Blood-brain barrier permeability compared by brain/serum concentration ratio” value is reported as “higher permeability than AMB-CHMICA (up to ten times); also recorded: around ten-fold more permeable than AMB-CHMICA”. Also, the concentration at 15 min in data set [1] (setting [18]) is 57 ng/g; in data set [1] (setting [6]), 42.6 ng/g; in data set [1] (setting [10]), 7 ng/g; in data set [1] (setting [15]) it was 13 ng/mL. The concentration at 30 min is 18.4 ng/g in data set [1] (setting [4]), 16.4 ng/g in data set [1] (setting [7]), 4.59 ng/g in data set [1] (setting [11]) and 3.03 ng/mL in data set [1] (setting [16]). Further, the concentration at 180 min in data set [1] (male, Sprague-Dawley, brain, ip, 1 mg/kg, 180 min after injection, one sample, estimated concentration, read-out: Brain concentration) is 2.64 ng/g; in data set [1] (setting [8]), 3.36 ng/g. Also, the Kp at 15 min in data set [1] (setting [5]) is 4.38; in data set [1] (setting [9]), 3.27; in data set [1] (setting [13]), 0.56. In addition, the Kp at 30 min turned out to be 6.05 in data set [1] (setting [5]), 5.42 in data set [1] (setting [9]) and 1.52 in data set [1] (setting [13]).

`COC(=O)C(NC(=O)c1cn(CC2CCCCC2)c2ccccc12)C(C)C` (stereo not drawn) [AMB-CHMICA]: in data set [1] (setting [2]), the Brain concentration is reported as 21.3 ng/g. The Liver concentration in data set [1] (180 min after injection, one sample, estimated concentration, 1 mg/kg) is 4.64 ng/g. The concentration at 15 min in data set [1] (setting [18]) was 21 ng/g; in data set [1] (setting [6]) it was 36.5 ng/g; in data set [1] (setting [10]) it was 846 ng/g; in data set [1] (setting [15]) it was 45.1 ng/mL. The concentration at 30 min in data set [1] (setting [4]) was 20.7 ng/g; in data set [1] (setting [7]), 66 ng/g; in data set [1] (setting [11]), 874 ng/g; in data set [1] (setting [16]) it was 65.9 ng/mL. Besides, the Kp at 15 min was 0.47 in data set [1] (setting [5]), 0.81 in data set [1] (setting [9]) and 18.8 in data set [1] (setting [13]). Besides, the results for the Kp at 30 min in data set [1] (setting [5]), in data set [1] (setting [9]) and in data set [1] (setting [13]) were 0.31, 1 and 13.3, respectively. The figures for the concentration at 180 min in data set [1] (setting [12]) and in data set [1] (setting [17]) were < 5 ng/g and 3.93 ng/mL, respectively. Also, the Kp at 180 min in data set [1] (setting [14]) worked out at 1.18.

The values above are taken from article PMC8873228, “In-depth comparison of the metabolic and pharmacokinetic behaviour of the structurally related synthetic cannabinoids AMB-FUBINACA and AMB-CHMICA in rats” (Communications Biology, 2022).
